Results on eleven compounds are retold here after ChEMBL document CHEMBL1201862, “PubChem BioAssay data set” (2004).

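Cells were grown in 96-well plates and exposed to each compound for 48 hours at five concentrations; endpoints were interpolated linearly between bracketing concentrations, or set to the highest concentration if not reached. GI50 is the concentration that inhibits growth by half.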 Active and inactive are the calls of the source. Cut-off read from the data, not from the text of the source: active = GI50 up to about 1.1 µM and inactive = higher.

Test systems include LOX IMVI; Hs-578T; OVCAR-4; M14; COLO 205; T47D; SW-620; Malme-3M; OVCAR-5; MDA-MB-435; HCC 2998; OVCAR-3; SF-539; NCI-H23; HT-29; SK-MEL-5; SF-268; A549; CCRF-CEM; HL-60.
Holding throughout (assay): NCI-60 cell line screen, 48 h

As to `S=C(Nc1ccc2cn[nH]c2c1)Nc1ccc2cn[nH]c2c1`, the GI50 in the experiment with LOX IMVI was 70 µM (inactive); in the experiment with Hs-578T, > 100 µM (inactive); in the experiment with OVCAR-4, > 100 µM (inactive); in the experiment with M14, > 100 µM (inactive); with COLO 205 it was 44.8 µM (inactive); in the experiment on T47D, 33.5 µM (inactive). Besides, the GI50 was > 100 µM (inactive) with SW-620; > 100 µM (inactive) with Malme-3M; 95.5 µM (inactive) in the experiment with OVCAR-5; 58.9 µM (inactive) in the experiment on MDA-MB-435; 60.8 µM (inactive) in the experiment on HCC 2998; > 100 µM (inactive) in the experiment with OVCAR-3. Moreover, the GI50 was > 100 µM (inactive) with SF-539; 41.6 µM (inactive) in the experiment with NCI-H23; 50 µM (inactive) in the experiment on HT-29; 45.1 µM (inactive) in the experiment on SK-MEL-5; > 100 µM (inactive) in the experiment on SF-268; 96.8 µM (inactive) in the experiment with A549.
Turning to `O=S(=O)(N/C(=N\O)Nc1ccc(Cl)cc1)c1cc2ccccc2o1`, the GI50 with LOX IMVI is 11.5 µM (inactive); in the experiment on Hs-578T, 20.4 µM (inactive); in the experiment with OVCAR-4 it was 17.9 µM (inactive); with M14, 21.2 µM (inactive); in the experiment with COLO 205, 22.6 µM (inactive); in the experiment on T47D, > 100 µM (inactive). Also, the GI50 in the experiment with SW-620 is 23.1 µM (inactive); in the experiment with CCRF-CEM, 22.1 µM (inactive); with Malme-3M, 19.9 µM (inactive); with OVCAR-5 it was 23.6 µM (inactive); in the experiment with MDA-MB-435, 12.2 µM (inactive); with HL-60, 15.3 µM (inactive). The GI50 with OVCAR-3 is 13.1 µM (inactive); in the experiment on SF-539, 33.9 µM (inactive); with NCI-H23 it was 18 µM (inactive); in the experiment on HT-29 it was 22.9 µM (inactive); in the experiment with SK-MEL-5 it was 15.3 µM (inactive); with SF-268 it was 18.3 µM (inactive). Besides, the GI50 with A549 was 26.1 µM (inactive).
On to `COc1cc2cc(C(=O)N3CC(CCl)c4c3cc(NCCN)c3ccccc43)[nH]c2c(OC)c1OC` (configuration not stated), for which the GI50 was < 0.01 µM (active) with LOX IMVI; < 0.01 µM (active) in the experiment with Hs-578T; 0.0116 µM (active) in the experiment with OVCAR-4; < 0.01 µM (active) in the experiment with M14; 0.0112 µM (active) in the experiment on COLO 205; < 0.01 µM (active) with T47D. Further, the GI50 with SW-620 was < 0.01 µM (active); in the experiment with Malme-3M, < 0.01 µM (active); in the experiment with OVCAR-5 it was < 0.01 µM (active); with MDA-MB-435, < 0.01 µM (active); in the experiment on HCC 2998 it was < 0.01 µM (active); in the experiment on OVCAR-3 it was 0.0123 µM (active). Moreover, the GI50 with SF-539, in the experiment with NCI-H23, in the experiment with SK-MEL-5, with SF-268 and with A549 was < 0.01 µM (active) throughout.
Regarding `C[N+]12C=CC=C1C(N1CCCC1)c1sc(-c3ccc(Cl)cc3)cc12` (configuration not stated), the GI50 with LOX IMVI was 16 µM (inactive); in the experiment on Hs-578T it was 22.1 µM (inactive); in the experiment with OVCAR-4, 18.2 µM (inactive); with M14, 17.1 µM (inactive); in the experiment on COLO 205, 16.9 µM (inactive); in the experiment on T47D, 10.6 µM (inactive). The GI50 in the experiment on SW-620 was 15.9 µM (inactive); with CCRF-CEM, 17.5 µM (inactive); in the experiment with Malme-3M, 15.6 µM (inactive); with OVCAR-5, 19.2 µM (inactive); in the experiment with MDA-MB-435, 15.7 µM (inactive); in the experiment with HCC 2998 it was 15.7 µM (inactive). The GI50 was 13.6 µM (inactive) in the experiment on OVCAR-3; 17.4 µM (inactive) in the experiment with HT-29; 17.9 µM (inactive) in the experiment with SK-MEL-5; 17.1 µM (inactive) with SF-268; 28.6 µM (inactive) in the experiment with A549.
On to `CC1=NNC(=O)C1C1CC(c2c[nH]c3ccccc23)=NNC1=S` (configuration not stated), for which the GI50 in the experiment with Hs-578T is > 100 µM (inactive); with M14 it was > 100 µM (inactive); in the experiment with COLO 205 it was 72.1 µM (inactive); in the experiment with T47D it was 82.2 µM (inactive); in the experiment on SW-620, > 100 µM (inactive); in the experiment with CCRF-CEM it was 28.6 µM (inactive). The GI50 is > 100 µM (inactive) in the experiment on Malme-3M; > 100 µM (inactive) with OVCAR-5; 94.4 µM (inactive) in the experiment with MDA-MB-435; 68.4 µM (inactive) with HL-60; > 100 µM (inactive) in the experiment on OVCAR-3; > 100 µM (inactive) in the experiment with SF-539. The GI50 is 64 µM (inactive) in the experiment with NCI-H23; > 100 µM (inactive) with HT-29; > 100 µM (inactive) in the experiment on SK-MEL-5; > 100 µM (inactive) in the experiment with SF-268; > 100 µM (inactive) in the experiment with A549.
On to `CCn1c(=O)c2c3cc(OC(C)=O)ccc3oc2c2ccc(OC(C)=O)cc21`, for which the GI50 in the experiment on Hs-578T was 11.1 µM (inactive); with OVCAR-4 it was 36.9 µM (inactive); in the experiment with M14, 45.9 µM (inactive); with COLO 205, 20.7 µM (inactive); in the experiment with T47D it was 20.2 µM (inactive); in the experiment on SW-620, 38.4 µM (inactive). In addition, the GI50 in the experiment on CCRF-CEM is 17.2 µM (inactive); with Malme-3M it was 39.4 µM (inactive); in the experiment on MDA-MB-435, 31.1 µM (inactive); with HCC 2998, 23.4 µM (inactive); with OVCAR-3, 39.8 µM (inactive); in the experiment with SF-539 it was 27.5 µM (inactive). Moreover, the GI50 in the experiment on NCI-H23 is 37.9 µM (inactive); with HT-29, 37.3 µM (inactive); in the experiment with SK-MEL-5, 33 µM (inactive); in the experiment on SF-268, 31.9 µM (inactive); in the experiment with A549, 43.9 µM (inactive).
As for `CC1CC(C(=O)OC2OC(COC3OC(CO)C(OC4OC(C)C(O)C(O)C4O)C(O)C3O)C(O)C(O)C2O)C2CCC3(C)C(=CCC4(C)C3CCC3C(C)(CO)C(O)C(O)CC34C)C2C1C` (configuration not stated), the GI50 was 21.7 µM (inactive) with LOX IMVI; 17.7 µM (inactive) in the experiment on Hs-578T; 15.1 µM (inactive) in the experiment on OVCAR-4; 35.7 µM (inactive) with M14; 17.3 µM (inactive) in the experiment with COLO 205; 18.4 µM (inactive) in the experiment with T47D. In addition, the GI50 in the experiment on SW-620 was 30.1 µM (inactive); in the experiment with CCRF-CEM, 21.9 µM (inactive); in the experiment on OVCAR-5 it was 26.7 µM (inactive); with MDA-MB-435, 18.6 µM (inactive); in the experiment with HCC 2998, 21.8 µM (inactive); in the experiment on HL-60 it was 21.6 µM (inactive). Also, the GI50 in the experiment on OVCAR-3 was 23.3 µM (inactive); in the experiment with SF-539, 18.4 µM (inactive); in the experiment with NCI-H23, 16.3 µM (inactive); in the experiment on HT-29, 21.8 µM (inactive); in the experiment with SK-MEL-5 it was 18.7 µM (inactive); with SF-268, 19 µM (inactive). Also, the GI50 in the experiment on A549 is 96.6 µM (inactive).
Take `CSc1nc2cc(S(=O)(=O)N3CCCCC3)ccc2s1`: the GI50 in the experiment with LOX IMVI, in the experiment on Hs-578T, in the experiment with OVCAR-4, with M14, with COLO 205 and with T47D was > 100 µM (inactive) in each case. The GI50 in the experiment with SW-620, with CCRF-CEM, in the experiment on Malme-3M, in the experiment on OVCAR-5, in the experiment on MDA-MB-435 and with HL-60 was > 100 µM (inactive) throughout. For the same compound, the GI50 with OVCAR-3, with SF-539, in the experiment with NCI-H23, in the experiment with HT-29, in the experiment with SK-MEL-5 and with SF-268 was > 100 µM (inactive) in each case. For the same compound, the GI50 in the experiment on A549 is > 100 µM (inactive).
As to `CC1(C)[C@@H](Cn2cnc3c(N)ncnc32)CC[C@@]1(C)CO`, the GI50 is > 100 µM (inactive) in the experiment with LOX IMVI; > 100 µM (inactive) in the experiment on Hs-578T; > 100 µM (inactive) in the experiment with OVCAR-4; > 100 µM (inactive) in the experiment on M14; 71.9 µM (inactive) with COLO 205; > 100 µM (inactive) with T47D. For the same compound, the GI50 in the experiment with SW-620 is 82.8 µM (inactive); in the experiment on CCRF-CEM, 51.9 µM (inactive); with Malme-3M, > 100 µM (inactive); with OVCAR-5 it was 83.4 µM (inactive); in the experiment on MDA-MB-435, 45.6 µM (inactive); with HCC 2998, 53 µM (inactive). Further, the GI50 is 40.1 µM (inactive) in the experiment on HL-60; 73.6 µM (inactive) with OVCAR-3; 55 µM (inactive) in the experiment on NCI-H23; 39.4 µM (inactive) with HT-29; 60.7 µM (inactive) in the experiment with SK-MEL-5; > 100 µM (inactive) in the experiment on SF-268. Also, in the experiment with A549, the GI50 was > 100 µM (inactive).
In the case of `NS(=O)(=O)c1nnc(NC(=O)C23CC4CC(CC(C4)C2)C3)s1`, the GI50 in the experiment on LOX IMVI is > 100 µM (inactive); in the experiment with Hs-578T, > 100 µM (inactive); in the experiment with OVCAR-4 it was 0.101 µM (active); in the experiment with M14 it was > 100 µM (inactive); in the experiment on COLO 205, > 100 µM (inactive); in the experiment with T47D, 90.4 µM (inactive). For the same compound, the GI50 in the experiment with SW-620, in the experiment with Malme-3M, in the experiment on OVCAR-5, with MDA-MB-435, in the experiment with HCC 2998 and in the experiment with OVCAR-3 was > 100 µM (inactive) throughout. Besides, the GI50 in the experiment on SF-539 is > 100 µM (inactive); in the experiment with NCI-H23, > 100 µM (inactive); with SK-MEL-5, 96.2 µM (inactive); in the experiment on SF-268, 55.7 µM (inactive); with A549, > 100 µM (inactive).
On to `CCOC(=O)C1(C#N)C(C#N)(C#N)C1(C#N)C#N`, for which the GI50 in the experiment with LOX IMVI, in the experiment with Hs-578T, in the experiment on OVCAR-4, in the experiment with M14, with COLO 205 and in the experiment with T47D was > 100 µM (inactive) throughout. The GI50 in the experiment on SW-620, in the experiment with CCRF-CEM, in the experiment on Malme-3M, with OVCAR-5, with MDA-MB-435 and with HCC 2998 was > 100 µM (inactive) each time. Further, the GI50 with HL-60, in the experiment with NCI-H23, in the experiment on HT-29, in the experiment with SK-MEL-5, with SF-268 and with A549 was > 100 µM (inactive) throughout.
